Test results: US7335688B2, “Bicyclic cannabinoid agonists for the cannabinoid receptor” (University of Connecticut, priority 1999, dated 2008)

Target: T1, CB2 receptor (Mus musculus, UniProt P47936)
T1 construct: membranes were prepared from frozen mouse spleen; from tissue; host or cells: mouse spleen membranes
Test: CB2 receptor binding assay ([3H] CP-55,940 displacement, mouse spleen membranes)
Settings: CB2 (mouse spleen) versus CB1 (rat forebrain membranes) binding affinity
Protocol: As used herein, “binding affinity” (Ki) is represented by the IC50 value which is the concentration of an analog required to occupy the 50% of the total number (Bmax) of the receptors. The lower the IC50 value the higher the binding affinity. […] The AM1703 material was tested for CB2 receptor binding affinity and for CB1 receptor affinity (to determine selectivity for the CB2 receptor).
Membranes, previously frozen at −80° C., were thawed on ice. To the stirred suspension was added three volumes of TME (25 mM Tris-HCI buffer, 5 mM MgCl2 and 1 mM EDTA) at a pH 7.4. The suspension was incubated at 4° C. for 30 min. At the end of the incubation, the membranes were pelleted and washed three times with TME.
The treated membranes were subsequently used in the binding assay described below. Approximately 30 μg of membranes were incubated in silanized 96-well microtiter plate with TME containing 0.1% essentially fatty acid-free bovine serum albumin (BSA), 0.8 nM [^3H] […] Radioactivity was detected using MicroScint 20 scintillation cocktail added directly to the dried filterplates, and the filterplates were counted using a Packard Instruments Top-Count. Nonspecific binding was assessed using 100 nM CP-55,940. […] CP-55,940, determined using buffer and 100 nM CP-55,940. The normalized data was analyzed using a 4-parameter nonlinear logistic equation to yield IC50 values. […]

T1 sequence (P47936 whole entry): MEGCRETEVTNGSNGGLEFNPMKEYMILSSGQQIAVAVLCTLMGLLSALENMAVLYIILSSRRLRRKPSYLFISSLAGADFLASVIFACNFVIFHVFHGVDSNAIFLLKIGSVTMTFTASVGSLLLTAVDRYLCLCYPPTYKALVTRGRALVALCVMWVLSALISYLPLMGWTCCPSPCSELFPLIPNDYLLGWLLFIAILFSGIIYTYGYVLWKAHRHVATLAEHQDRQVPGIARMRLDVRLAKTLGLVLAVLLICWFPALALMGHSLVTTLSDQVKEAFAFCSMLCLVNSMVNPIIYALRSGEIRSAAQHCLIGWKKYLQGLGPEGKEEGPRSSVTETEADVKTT

C#CCCCCC(C)(C)c1cc(O)c([C@@H]2CC(=O)[C@@H]3C[C@H]2C3(C)C)c(O)c1 [AM1703]
CB2 selectivity over CB1: ~500 fold
